Source: patent publication US8816085B2 (Takeda GmbH, priority 2009, dated 2014)

target: T1, PDE5A1 (human PDE5 from platelets) (Homo sapiens, UniProt O76074); assay: Inhibition of type 5 phosphodiesterase (PDE5) activity, modified SPA test; type: biochemical; conditions: PDE5-containing human platelet lysate, 0.5 μM cGMP, value classes, read-out: PDE5A1 inhibitory values [measured as −logIC50 (mol/l)] (converted)
T1 construct: from tissue; host or cells: platelets from fresh blood of human donors (10,000 g supernatant of sonified platelets)
Procedure: Method for Measuring Inhibition of the Type 5 Phosphodiesterase (PDE5) Activity:
As a source for human PDE5, platelets are used. For that purpose, 150 ml fresh blood from human donors anticoagulated with citrate [final concentration 0.3% (w/v)] is centrifuged at 200 g for 10 min to obtain the so-called platelet-rich-plasma (PRP) as a supernatant. 1/10 volume of ACD solution (85 mM Na3-citrate, 111 mM D-glucose, 71 mM citric acid, pH 4.4) is added to 9/10 volume of PRP. After centrifugation (1,400 g, 10 min) the cell pellet is resuspended in 3 ml homogenization buffer (NaCl 140 mM, KCl 3.8 mM, EGTA (ethylene glycol tetraacetic acid) 1 mM, MgCl2 1 mM, Tris-HCl 20 mM, beta-mercaptoethanol 1 mM, pH 8.2) plus protease-inhibitor mix giving rise to the final concentrations of 0.5 mM Pefablock (Roche), 10 μM Leupeptin, 5 μM Trypsininhibitor, 2 mM Benzamidin and 10 μM Pepstatin A. The suspension is sonified and thereafter centrifuged for 15 min at 10,000 g. The resulting supernatant (platelet lysate) is used for enzymatic testings.
PDE5A1 activity is inhibited by the compounds of the present subject matter in a modified SPA (scintillation proximity assay) test, supplied by Amersham Biosciences (see procedural instructions “phosphodiesterase [3H]cAMP SPA enzyme assay, code TRKQ 7090”), carried out in 96-well microtitre plates (MTP's). The test volume is 100 μl and contains 20 mM Tris buffer (pH 7.4), 0.1 mg of BSA (bovine serum albumin)/ml, 5 mM Mg^2+, 1 μM motapizone, 10 nM PDE2 inhibitor 2-(3,4-dimethoxybenzyl)-7-[(1R,2R)-2-hydroxy-1-(2-phenylethyl)propyl]-5-methylimidazo[5,1-t][1,2,4]triazin-4(3H)-one, 0.5 μM cGMP (cyclic guanosine monophosphate) (including about 50,000 cpm of [3H]cGMP as a tracer), 1 μl of the respective compound dilution in dimethylsulfoxide (DMSO) and sufficient PDE5-containing platelet lysat (10,000×g supernatant, see above) to ensure that 10-20 wt % of the cGMP is converted under the said experimental conditions. […] After a preincubation of 5 min at 37° C., the reaction is started by adding the substrate (cGMP) and the assay is incubated for a further 15 min; after that, it is stopped by adding SPA beads (50 μl). In accordance with the manufacturer's instructions, the SPA beads had previously been resuspended in water, but are then diluted 1:3 (v/v) in water; the diluted solution also contains 3 mM 8-methoxymethyl-3-isobutyl-1-methylxanthine (IBMX) to ensure a complete PDE activity stop. After the beads have been sedimented (>30 min), the MTP's are analyzed in commercially available luminescence detection devices. The corresponding IC50 values of the compounds for the inhibition of PDE activity are determined from the concentration-effect curves by means of non-linear regression.

| IC50 [nM] | Structure (SMILES) |
| --- | --- |
| < 1 | CC(=O)N[C@H]1CC[C@H](NC(=O)c2c(C)[nH]c3c(-c4c(OCC5CC5)ccc5c4OCO5)ccnc23)CC1 [Example E05, N-(trans-4-Acetamidocyclohexyl)-7-[5-(cyclopropylmethoxy)-1,3-benzodioxol-4-yl]-2-methyl-1H-pyrrolo[3,2-b]pyridine-3-carboxamide] |
| < 1 | CC(=O)N[C@H]1CC[C@@H](NC(=O)c2c(C)[nH]c3c(-c4c(OCC5CC5)ccc5c4OCO5)ccnc23)CC1 [Example E06, N-(cis-4-acetamidocyclohexyl)-7-[5-(cyclopropylmethoxy)-1,3-benzodioxol-4-yl]-2-methyl-1H-pyrrolo[3,2-b]pyridine-3-carboxamide] |
| < 1 | CCC(=O)N[C@H]1CC[C@@H](NC(=O)c2c(C)[nH]c3c(-c4c(OCC5CC5)ccc5c4OCO5)ccnc23)CC1 [Example E07, 7-[5-(Cyclopropylmethoxy)-1,3-benzodioxol-4-yl]-2-methyl-N-[cis-4-(propionylamino)cyclohexyl]-1H-pyrrolo[3,2-b]pyridine-3-carboxamide] |
| < 1 | COCC(=O)N[C@H]1CC[C@@H](NC(=O)c2c(C)[nH]c3c(-c4c(OCC5CC5)ccc5c4OCO5)ccnc23)CC1 [Example E08, 7-[5-(Cyclopropylmethoxy)-1,3-benzodioxol-4-yl]-N-{cis-4-[(methoxyacetyl)amino]cyclohexyl}-2-methyl-1H-pyrrolo[3,2-b]pyridine-3-carboxamide] |
| < 1 | CCOC(=O)N[C@H]1CC[C@@H](NC(=O)c2c(C)[nH]c3c(-c4c(OCC5CC5)ccc5c4OCO5)ccnc23)CC1 [Example E09, Ethyl {cis-4-[({7-[5-(cyclopropylmethoxy)-1,3-benzodioxol-4-yl]-2-methyl-1H-pyrrolo[3,2-b]pyridin-3-yl}carbonyl)amino]cyclohexyl}carbamate] |
| < 1 | CC(=O)N1CCC(NC(=O)c2c(C)[nH]c3c(-c4ccc(F)cc4OCC4CC4)ccnc23)CC1 [Example E10, N-(1-Acetylpiperidin-4-yl)-7-[2-(cyclopropylmethoxy)-4-fluorophenyl]-2-methyl-1H-pyrrolo[3,2-b]pyridine-3-carboxamide] |
| < 1 | CCC(=O)N1CCC(NC(=O)c2c(C)[nH]c3c(-c4ccc(F)cc4OCC4CC4)ccnc23)CC1 [Example E11, 7-[2-(Cyclopropylmethoxy)-4-fluorophenyl]-2-methyl-N-(1-propanoylpiperidin-4-yl)-1H-pyrrolo[3,2-b]pyridine-3-carboxamide] |
| 1 to 10 | COCC(=O)N1CCC(NC(=O)c2c(C)[nH]c3c(-c4ccc(F)cc4OCC4CC4)ccnc23)CC1 [Example E12, 7-[2-(Cyclopropylmethoxy)-4-fluorophenyl]-N-[1-(methoxyacetyl)piperidin-4-yl]-2-methyl-1H-pyrrolo[3,2-b]pyridine-3-carboxamide] |
| < 1 | CC(=O)N[C@H]1CC[C@H](NC(=O)c2c(C)[nH]c3c(-c4ccc(F)cc4OCC4CC4)ccnc23)CC1 [Example E13, N-[trans-4-(Acetylamino)cyclohexyl]-7-[2-(cyclopropylmethoxy)-4-fluorophenyl]-2-methyl-1H-pyrrolo[3,2-b]pyridine-3-carboxamide] |
| < 1 | CCC(=O)N[C@H]1CC[C@H](NC(=O)c2c(C)[nH]c3c(-c4ccc(F)cc4OCC4CC4)ccnc23)CC1 [Example E14] |
| < 1 | COCC(=O)N[C@H]1CC[C@H](NC(=O)c2c(C)[nH]c3c(-c4ccc(F)cc4OCC4CC4)ccnc23)CC1 [Example E15, 7-[2-(Cyclopropylmethoxy)-4-fluorophenyl]-N-{trans-4-[(methoxyacetyl)amino]cyclohexyl}-2-methyl-1H-pyrrolo[3,2-b]pyridine-3-carboxamide] |
| 1 to 10 | CC(=O)N[C@H]1CC[C@@H](NC(=O)c2c(C)[nH]c3c(-c4ccc(F)cc4OCC4CC4)ccnc23)CC1 [Example E16, N-[cis-4-(Acetylamino)cyclohexyl]-7-[2-(cyclopropylmethoxy)-4-fluorophenyl]-2-methyl-1H-pyrrolo[3,2-b]pyridine-3-carboxamide] |
